The source of these data is patent US20160187553A1, “METHOD OF MANUFACTURING POLARIZING PLATE, POLARIZING PLATE MANUFACTURED USING THE METHOD, AND LIQUID CRYSTAL DISPLAY DEVICE” (Konica Minolta, Inc., priority 2010, published 2016).

Read-outs that look alike come from different tables or passages of the source.

For data set [1] the following is noted: reference liquid; cited from earlier work.
Data set [2] is described as follows: logP of additives A and B of the protective films.

As usually defined, the logP is the decadic logarithm of the partition coefficient of the neutral form, usually between octanol and water.

For `O` [water], in data set [1], the γLd is on record as 30.4 mN/m, the γLh is given as 42.4 mN/m and the γLp was 0.0 mN/m.

`O=P(Oc1ccccc1)(Oc1ccccc1)Oc1ccccc1` [TPP, Triphenyl phosphate] gave a lipophilicity (logP) in data set [2] of 5.6.

Regarding `C[N+](=O)[O-]` [nitromethane], in data set [1], the γLd is listed as 18.3 mN/m, the γLh is recorded as 0.0 mN/m and the γLp is reported as 17.7 mN/m.

On to `CCOC(=O)COC(=O)c1ccccc1C(=O)OCC` [EPEG, Ethylphthalyl ethylglycolate], for which the logP in data set [2] turned out to be 2.3.

As for `O=C(OCC(COC(=O)c1ccccc1)(COC(=O)c1ccccc1)COC(=O)c1ccccc1)c1ccccc1` [PETB, pentaerythritol-tetrabenzoate], in data set [2], the logP turned out to be 9.9.

On to `CCC(COC(=O)c1ccccc1)(COC(=O)c1ccccc1)COC(=O)c1ccccc1` [Compound 16], for which, in data set [2], the logP stood at 7.9.

In turn, `O=P(Oc1ccccc1)(Oc1ccccc1)Oc1ccccc1-c1ccccc1` [BDP, Biphenyldiphenyl phosphate] yielded a log partition coefficient (logP) in data set [2] (additive of protective film) of 7.3.

Consider `ICI` [diiodomethane], for which, in data set [1], the γLd is 51.0 mN/m, the γLh is 0.0 mN/m and the γLp was 0.0 mN/m.
